Laboratory results taken from patent publication US20220062273A1, “CONJUGATES OF PATTERN RECOGNITION RECEPTOR AGONISTS” (Ascendis Pharma Oncology Division A/S, priority 2019, published 2022).

Columns and labels:
Format in all cases: in vivo, BALB/C mice
[1] = system: CD8+ T cells of CD3+ T cells; test: Flow cytometric profiling of tumor draining lymph nodes; conditions: tumor draining lymph node, 7 days after randomization
Method: (§1) Hydrogels were administered as suspension in PTP buffer. Some cohorts were further treated with 20 μg human IL-2 (Peprotech, Rocky Hill, N.J.), intraperitoneally (I.P.), twice a day for 5 days. Mice were sacrificed 7 days after randomization (DO). Following sacrifice, tumor draining lymph nodes were isolated from both flanks and were dissociated mechanically to generate a single cell suspension at a cell concentration of 1×10^6 cells per sample. Cell suspensions were centrifuged at 300 g for 5 minutes. Supernatants were discarded and cells were resuspended in FACS buffer with 1 μg/ml Fc-Block and incubated at 4° C. for 10 minutes in the dark. Surface marker antibody mixtures (antibody concentration: 10 μg/mL) in FACS buffer were added to each sample and samples were incubated in the dark at 4° C. for 30 minutes. Cells were centrifuged at 300 g for 5 minutes and supernatants were discarded. Cells were washed and then resuspended with FACS buffer before cytometer collection.
(§2) After collection, FACS data was analyzed using FlowJo Version 10.6.1. Compensation was digitally adjusted using single antibody-stained beads. Samples with less than 90% viability, as determined by LiveDead cell staining, were excluded from the analysis. Cells were defined using the following gating strategy: • 1) Ly-6C^+ antigen presenting cells: FSC-H/FSC-A Singlets/LiveDead^−/CD45^+/CD3^−/CD335^−/Ly-6C^+ • 2) Ly-6C^+ MHCII^+ antigen presenting cells: FSC-H/FSC-A Singlets/LiveDead^−/CD45^+/CD3^−/CD335^−/Ly-6C^+/IA/IE (MHCII)^+ • 3) CD8^+ T cells: FSC-H/FSC-A Singlets/LiveDead^−/CD45^+/CD3^+/CD8 single positive 4) Ly-6C^+ CD8^+ T cells: FSC-H/FSC-A Singlets/LiveDead^−/CD45^+/CD3^+/CD8 single positive/Ly-6C^+

[2] = system: Ly-6C+ T cells of CD8+ T cells; test: as above; conditions: tumor draining lymph node, 7 days after randomization
Method: as §1, §2

[3] = system: peripheral blood mononuclear cells (PBMC); test: PBMC gene expression (qPCR), 6 hours post-treatment
Method: Hydrogels were administered as suspensions in PTP buffer. […] Tumors were excised, weighed and snap frozen. […] For PBMC isolations, approximately 600 μl of whole blood was collected via cardiac puncture. The collected whole blood from each individual mouse was diluted with a 1:1 ratio of pre-warmed PBS supplemented with 2% Fetal Bovine Serum (FBS). Then an equal volume of Histopaque-1083 was added to a new sterile 15 mL conical tube, where the diluted whole blood was layered over the Histopaque-1083. The mixture was then centrifuged at 400 g for 30 minutes. The top plasma layer was discarded, and the white translucent interlayer (mononuclear cells) was carefully transferred to a new sterile centrifuge tube. The mononuclear cells were then washed with PBS supplemented with 2% FBS and then were spun down at 250 g for 10 minutes. […] RNA concentrations were measured using a NanoDrop (ThermoFisher) and then adjusted to […] with RNase-free water. RNA quality was assessed using a NanoDrop (ThermoFisher). […] 200 ng of cDNA was used for quantitative PCR using the RT^2 SYBR Green ROX qPCR Master mix (2X) kit (QIAGEN) following manufacturer's recommendations. […] For each gene, 3 technical replicates were analyzed per biological replicate. Undetermined technical replicate CT values were recorded as zero ΔCT values. 4-5 biological replicates were assessed in total.

CCOCc1nc2c(N)nc3ccccc3c2n1CC(C)(C)O [Compound 4, Resiquimod]
Frequency of CD8+ T cells of CD3+ T cells, Mean ([1]; injected right flank): 29.23%
Frequency of CD8+ T cells of CD3+ T cells, Mean ([1]; uninjected left flank): 29%
Frequency of Ly-6C+ T cells of CD8+ T cells, Mean ([2]; injected right flank): 53.7%
Frequency of Ly-6C+ T cells of CD8+ T cells, Mean ([2]; uninjected left flank): 48%
Il1a Mean (2^ΔΔCT) [3]: 0.41
